{
  "source": "patent US9566265B2",
  "about": "“Carbazole compounds and therapeutic uses of the compounds” (Incuron, LLC, priority 2008, dated 2017)",
  "key": {"in vivo": {"assay": "in vivo", "conditions": "nude, mouse, po", "method": "Drug doses and schedule. […] Treatment was initiated 7 days after tumor transplantation when the tumors reached 150-200 mg. The mice in the control group received the vehicle (0.2% hydroxypropylmethylcellulose) at 200 μl per 20 g mouse body weight (same as the treatment groups). Five mice were used for each experimental group with 10 tumors (1 tumor each in the left and right side flanks).\nMaximum Tolerated Dose (MTD) and toxicity evaluation. […] The kinetics of drug-induced toxicities (body weight loss, diarrhea, and lethality) were determined daily for the first 10 days after treatment and every two days thereafter."}, "[1]": {"system": "human HT-29 colon adenocarcinoma xenografts", "method": "In this study, the antitumor effect and toxicity of the three carbazoles against HCT-8 and HT29 colon cancer tumors were compared with treatment beginning when the tumor size reached 150-200 mg (about 7 days after tumor transplantation).\nEight to twelve-week-old female athymic nude mice (nu/nu, body weight 22-25 g) were obtained from Harlan Sprague Dawley Inc. (Indianapolis, Ind.) and maintained at five mice/cage with water and food ad libitum according to an institutionally approved animal protocol.\nHuman ileocecal adenocarcinoma HCT-8 and colon adenocarcinoma HT-29 xenografts were used. The xenografts were initially established by injecting s.c 10^6 cultured cells and tumors were passed several generations by transplanting about 50 mg non-necrotic tumor (2-3 pieces) via a trocar from the passage tumors when the tumors reach to 1-1.5 g.\nTreatment was initiated 7 days after tumor transplantation when the tumors reached 150-200 mg. The mice in the control group received the vehicle (0.2% hydroxypropylmethylcellulose) at 200 μl per 20 g mouse body weight (same as the treatment groups). Five mice were used for each experimental group with 10 tumors (1 tumor each in the left and right side flanks).\nTwo axes (mm) of tumor (L, longest axis; W, shortest axis) were measured with the aid of a Vernier caliper. Tumor weight (mg) was estimated using a formula: tumor weight=½ (L×W2). Tumor measurements were taken daily at the same time as drug treatment and 3-4 times a week of post therapy.\nThe kinetics of drug-induced toxicities (body weight loss, diarrhea, and lethality) were determined daily for the first 10 days after treatment and every two days thereafter.\nAntitumor activity was assessed by maximum tumor growth inhibition (MTRI) which is the mean tumor weight of treated group (MTWTG) compared with untreated control group (MTWCG) at the same time point (MTRI=MTWTG−MTWCG)÷MTWCG×100%). The tumor doubling time (TDT) was defined as the mean time for the tumor to reach twice its initial weight. Tumor response was expressed as partial tumor response (PR) when tumor weight was reduced at least 50% of the initial tumor size and complete tumor response (CR) was defined as the inability to detect tumor upon palpation at the initial site of tumor appearance."}, "p53": {"system": "p53", "assay": "p53 activation assay, p53 responsive luciferase reporter cell line", "assay_type": "cell-based, human", "conditions": "Homo sapiens, 16 h, HT1080-L or RCC45ConALuc reporter cells, 16 h; read-out: EC50 value (p53 activation)"}, "A. terreus": {"system": "A. terreus", "assay": "in vitro susceptibility CLSI M38A2, MIC", "conditions": "Aspergillus terreus", "from_the_text": "Eight Aspergillus spp. strains were used throughout the study. Six A. fumigatus, one A. flavus and one A. terreus also were used. The A. fumigatus group included two itraconazole-resistant strains (RIT13 and RIT5 strains) (1), one triazole cross-resistant strain (MUT10) (2, 3), one echinocandin cross-resistant strain (EMFRS678P) (4), and 2 wild type susceptible isolates (R21 and ATCC13073)."}, "C. orthopsilosis": {"system": "C. orthopsilosis", "assay": "in vitro susceptibility CLSI M27A3, MIC", "assay_type": "cell-based", "conditions": "Lodderomyces orthopsilosis, strain 981224, WT, Echinocandin cross-reduced susceptibility", "source_text": "(§1) (12): 1 C. orthopsilosis (981224), 1 C. metapsilosis (2006-113), C. parapsilosis (ATCC 22019 CLSI control), and C. guilliermondii (ATCC6260) (13)."}, "C. parapsilosis": {"system": "C. parapsilosis", "assay": "in vitro susceptibility CLSI M27A3, MIC", "assay_type": "cell-based", "conditions": "Lodderomyces parapsilosis, ATCC22019, strain ATCC 22019, WT, Echinocandin cross-reduced susceptibility", "source_text": "as §1"}, "C. metapsilosis": {"system": "C. metapsilosis", "assay": "in vitro susceptibility CLSI M27A3, MIC", "assay_type": "cell-based", "conditions": "Lodderomyces metapsilosis, strain 2006-113, WT, Echinocandin cross-reduced susceptibility", "source_text": "as §1"}, "C. guilliermondii": {"system": "C. guilliermondii", "assay": "in vitro susceptibility CLSI M27A3, MIC", "assay_type": "cell-based", "conditions": "Meyerozyma guilliermondii, strain ATCC6260, WT, Echinocandin cross-reduced susceptibility", "source_text": "as §1"}, "HB 101 E. coli": {"system": "HB 101 E. coli", "assay": "antibacterial cytotoxicity assay, gram(−) bacteria (OD600)", "assay_type": "cell-based", "conditions": "48 hours, over a range of potencies, FIG. 13A"}, "C. tropicalis": {"system": "C. tropicalis", "assay": "microbe, parasite or virus in culture", "assay_type": "cell-based", "conditions": "Candida tropicalis", "source_text": "Candida spp. strains: 20 Candida spp. clinical isolates and one laboratory control strain (C. albicans SC5314) was used in the study. In the collection were included:\n2 C. tropicalis strains, one ATCC control strain (ATCC 750), and one echinocandin cross-resistant (T3) (11)."}},
  "note": "Where two headings read alike, the source gives them in different places.",
  "data": [
    {"smiles": "CCN(CC)CCn1c2ccc3c(c2c2c4c(ccc21)C(=O)CC4)CCC3=O", "note": "[Example 15]", "values": [
      {"measurement": "MTD at 4 weeks", "setting": "in vivo", "result": 5, "unit": "mg/kg/day"},
      {"measurement": "delay of tumor growth (control double time 7.8 days)", "setting": "[1]", "result": 76, "unit": "%"},
      {"measurement": "inhibitory rate / tumor growth inhibition", "setting": "[1]", "result": 58, "unit": "%"},
      {"measurement": "Antitumor Activity MTGI (%)", "setting": "[1]; p.o. at MTD, 5 days on/2 days off per week, Example 15 5, Example 7 30, Example 13 25 mg/kg/d", "result": "58.4 ± 6.4", "unit": "%"},
      {"measurement": "Toxicity (%) lethality", "setting": "[1]; same", "result": 40, "unit": "%"},
      {"measurement": "CR (%)", "setting": "[1]; same, complete tumor response", "result": 0, "unit": "%"},
      {"measurement": "Toxicity (%) MWL", "setting": "[1]; same, maximum weight loss of pretreatment body weight", "result": "17.9 ± 6.8", "unit": "%"},
      {"measurement": "PR (%)", "setting": "[1]; same, partial tumor response", "result": 0, "unit": "%"},
      {"measurement": "Antitumor Activity TDT", "setting": "[1]; same, tumor doubling time", "result": "13.1 ± 2.3", "unit": "days"},
      {"measurement": "EC50", "setting": "p53", "result": 30, "unit": "nM"},
      {"measurement": "MIC", "setting": "A. terreus; read-out: MIC* (24 hs)", "result": 0.08, "unit": "µM"},
      {"measurement": "MIC", "setting": "A. terreus; read-out: MIC* (48 hs)", "result": 1.28, "unit": "µM"},
      {"measurement": "MIC", "setting": "C. orthopsilosis; read-out: MIC* (24 hs)", "result": 0.16, "unit": "µM"},
      {"measurement": "MIC", "setting": "C. orthopsilosis; read-out: MIC* (48 hs)", "result": 0.16, "unit": "µM"},
      {"measurement": "MIC", "setting": "C. parapsilosis; read-out: MIC* (24 hs)", "result": 0.08, "unit": "µM"},
      {"measurement": "MIC", "setting": "C. parapsilosis; read-out: MIC* (48 hs)", "result": 0.08, "unit": "µM"},
      {"measurement": "MIC", "setting": "C. metapsilosis; read-out: MIC* (24 hs)", "result": 0.16, "unit": "µM"},
      {"measurement": "MIC", "setting": "C. metapsilosis; read-out: MIC* (48 hs)", "result": 0.16, "unit": "µM"},
      {"measurement": "MIC", "setting": "C. guilliermondii; read-out: MIC* (24 hs)", "result": 0.08, "unit": "µM"},
      {"measurement": "MIC", "setting": "C. guilliermondii; read-out: MIC* (48 hs)", "result": 0.16, "unit": "µM"},
      {"measurement": "antibacterial effect", "setting": "HB 101 E. coli", "result": "antibacterial effect"},
      {"measurement": "MIC", "setting": "C. tropicalis; strain ATCC750, WT, Susceptible, read-out: MIC* (24 hs)", "result": 0.08, "unit": "µM"},
      {"measurement": "MIC", "setting": "C. tropicalis; strain ATCC750, WT, Susceptible, read-out: MIC* (48 hs)", "result": 0.16, "unit": "µM"},
      {"measurement": "MIC", "setting": "C. tropicalis; strain T3, Fks1pS645S/P, Echinocandin cross-resistant, read-out: MIC* (24 hs)", "result": 0.04, "unit": "µM"},
      {"measurement": "MIC", "setting": "C. tropicalis; strain T3, Fks1pS645S/P, Echinocandin cross-resistant, read-out: MIC* (48 hs)", "result": 0.08, "unit": "µM"}
    ]}
  ]
}
